According to US8716303B2, “N-(hetero)aryl-pyrrolidine derivatives of pyrazol-4-yl-pyrrolo[2,3-d]pyrimidines and pyrrol-3-yl-pyrrolo[2,3-d]pyrimidines as janus kinase inhibitors” (Incyte Corporation, priority 2009, dated 2014):
Counter-ions that a name gives are not always drawn.

Key:
[1] = target: T1, human JAK1 (a.a. 837-1142) (Homo sapiens, UniProt P23458); experiment: In vitro JAK kinase assay (HTRF, phosphorylation of a biotinylated peptide), JAK1; type: biochemical
T1 construct: human JAK1 (a.a. 837-1142); His tag (N); made in house; host or cells: insect cells (baculovirus)
Outline: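 IC50s come from HTRF detection (Eu-Py20, SA-APC, 40 min binding) after 1 h RT reactions with 500 nM biotinylated peptide in Tris pH 7.8 buffer. ATP either 1 mM or Km-level, 90 μM for JAK1 and 30 μM for JAK2; enzymes are baculovirus-expressed His-tagged catalytic domains (JAK1 837-1142, JAK2 828-1132).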

Jak2 (a.a. 828-1132) = target: T2, Jak2 (a.a. 828-1132) (Homo sapiens, UniProt O60674); experiment: In vitro JAK kinase assay (HTRF, phosphorylation of a biotinylated peptide), JAK2, reported as JAK2/JAK1 ratio; type: biochemical
T2 construct: Jak2 (a.a. 828-1132); His tag (N); made in house; host or cells: insect cells (baculovirus)

[2] = Assay Conditions Km (ATP 90 μM for Jak1)
[3] = Assay Conditions Km (ATP 90 μM for Jak1, 30 μM for Jak2)

T2 sequence (O60674 828-1132): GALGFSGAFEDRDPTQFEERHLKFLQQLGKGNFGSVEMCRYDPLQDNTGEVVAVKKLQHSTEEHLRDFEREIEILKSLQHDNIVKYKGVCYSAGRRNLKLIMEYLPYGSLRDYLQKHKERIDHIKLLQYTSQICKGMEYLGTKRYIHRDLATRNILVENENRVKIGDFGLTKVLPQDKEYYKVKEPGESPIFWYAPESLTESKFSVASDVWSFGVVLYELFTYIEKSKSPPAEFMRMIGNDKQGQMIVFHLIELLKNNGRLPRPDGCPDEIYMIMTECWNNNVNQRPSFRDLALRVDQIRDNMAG
T1 sequence (P23458 849-1154): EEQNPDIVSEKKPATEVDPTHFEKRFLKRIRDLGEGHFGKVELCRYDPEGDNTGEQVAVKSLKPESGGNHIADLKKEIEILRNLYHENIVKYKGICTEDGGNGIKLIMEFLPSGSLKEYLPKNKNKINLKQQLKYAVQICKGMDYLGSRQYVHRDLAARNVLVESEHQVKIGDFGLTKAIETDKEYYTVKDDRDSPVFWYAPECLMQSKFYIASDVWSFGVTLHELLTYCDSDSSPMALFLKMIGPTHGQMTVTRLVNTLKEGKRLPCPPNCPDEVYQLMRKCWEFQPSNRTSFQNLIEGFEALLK

Row | SMILES | IC50 ([1]; Assay Conditions 1 mM ATP) [nM] | JAK2/JAK1 IC50 ratio (Jak2 (a.a. 828-1132); Assay Conditions 1 mM ATP) | IC50 [1, 2] [nM] | JAK2/JAK1 IC50 ratio (Jak2 (a.a. 828-1132); [3])
1 | N#CCC(C1CCN(c2ncc3c(c2C#N)S(=O)(=O)CC3)C1)n1ccc(-c2ncnc3[nH]ccc23)c1 (racemic) [Example 171-rac, 6-(3-{2-cyano-1-[3-(7H-pyrrolo[2,3-d]pyrimidin-4-yl)-1H-pyrrol-1-yl]ethyl}pyrrolidin-1-yl)-2,3-dihydrothieno[3,2-c]pyridine-7-carbonitrile 1,1-dioxide] | < 50 | 21.9 | – | –
2 | COCc1c(F)cnc(N2CC[C@H]([C@H](CC#N)n3cc(-c4ncnc5[nH]ccc45)cn3)C2)c1F [Example 101, (3S)-3-{(3S)-1-[3,5-difluoro-4-(methoxymethyl)pyridin-2-yl]pyrrolidin-3-yl}-3-[4-(7H-pyrrolo[2,3-d]pyrimidin-4-yl)-1H-pyrazol-1-yl]propanenitrile trifluoroacetate] | < 50 | 4.0 | – | –
3 | N#CC[C@@H]([C@H]1CCN(c2nccnc2C#N)C1)n1cc(-c2ncnc3[nH]ccc23)cn1 [Example 51, 3-((3S)-3-{(1S)-2-cyano-1-[4-(7H-pyrrolo[2,3-d]pyrimidin-4-yl)-1H-pyrazol-1-yl]ethyl}pyrrolidin-1-yl)pyrazine-2-carbonitrile trifluoroacetate] | < 50 | 6.8 | – | –
4 | N#CC[C@@H]([C@H]1CCN(c2ccnc(C#N)c2C#N)C1)n1cc(-c2ncnc3[nH]ccc23)cn1 [Example 124, 4-((3S)-3-{(1S)-2-cyano-1-[4-(7H-pyrrolo[2,3-d]pyrimidin-4-yl)-1H-pyrazol-1-yl]ethyl}pyrrolidin-1-yl)pyridine-2,3-dicarbonitrile trifluoroacetate] | < 50 | >10.5 | – | –
5 | N#CCC(C1CCN(c2ccc3c(n2)[S+]([O-])CC3)C1)n1ccc(-c2ncnc3[nH]ccc23)c1 (stereo not shown) [Example 35, 3-[1-(1-oxido-2,3-dihydrothieno[2,3-b]pyridin-6-yl)pyrrolidin-3-yl]-3-[3-(7H-pyrrolo[2,3-d]pyrimidin-4-yl)-1H-pyrrol-1-yl]propanenitrile] | < 50 | 4.2 | – | –
6 | N#CC[C@@H]([C@H]1CCN(c2nc(Cl)c(F)cc2N)C1)n1cc(-c2ncnc3[nH]ccc23)cn1.O=C(O)C(F)(F)F.O=C(O)C(F)(F)F [Example 91B, (3S)-3-[(3S)-1-(3-amino-6-chloro-5-fluoropyridin-2-yl)pyrrolidin-3-yl]-3-[4-(7H-pyrrolo[2,3-d]pyrimidin-4-yl)-1H-pyrazol-1-yl]propanenitrile bis(trifluoroacetate)] | < 50 | 7.0 | – | –
7 | N#CCC(C1CCN(c2ncc3ccoc3c2C#N)C1)n1ccc(-c2ncnc3[nH]ccc23)c1 (racemic) [Example 170-rac, 6-(3-{2-cyano-1-[3-(7H-pyrrolo[2,3-d]pyrimidin-4-yl)-1H-pyrrol-1-yl]ethyl}pyrrolidin-1-yl)furo[3,2-c]pyridine-7-carbonitrile] | < 50 | 4.5 | – | –
8 | N#CCC(C1CCN(c2ccc3c(n2)S(=O)(=O)CC3)C1)n1ccc(-c2ncnc3[nH]ccc23)c1 (single isomer, unassigned) [34, enantiomer 2] | < 50 | 13.8 | – | –
9 | CS(=O)(=O)c1cccc(N2CCC(C(CC#N)n3cc(-c4ncnc5[nH]ccc45)cn3)C2)c1C#N (racemic) [Example 41, ±2-(3-{2-cyano-1-[4-(7H-pyrrolo[2,3-d]pyrimidin-4-yl)-1H-pyrazol-1-yl]ethyl}pyrrolidin-1-yl)-6-(methylsulfonyl)benzonitrile] | < 50 | 11 | – | –
10 | N#CCC(C1CCN(c2ccc3c(n2)S(=O)(=O)CC3)C1)n1ccc(-c2ncnc3[nH]ccc23)c1 (single isomer, unassigned) [34, enantiomer 1] | < 50 | 5.6 | – | –
11 | N#CCC(C1CCN(c2scc(C#N)c2C#N)C1)n1ccc(-c2ncnc3[nH]ccc23)c1 (single isomer, unassigned) [81 enantiomer 1] | < 50 | 40.0 | – | –
12 | CNC(=O)c1cc(N2CCC(C(CC#N)n3cc(-c4ncnc5[nH]ccc45)cn3)C2)ccn1 (single isomer, unassigned) [Example 152, 4-(3-{2-cyano-1-[4-(7H-pyrrolo[2,3-d]pyrimidin-4-yl)-1H-pyrazol-1-yl]ethyl}pyrrolidin-1-yl)-N-methylpyridine-2-carboxamide] | < 50 | 6.7 | – | –
13 | N#CC[C@@H]([C@H]1CCN(c2nc3c(cc2F)CCS3)C1)n1cc(-c2ncnc3[nH]ccc23)cn1 [Example 87, (3S)-3-[(3S)-1-(5-fluoro-2,3-dihydrothieno[2,3-b]pyridin-6-yl)pyrrolidin-3-yl]-3-[4-(7H-pyrrolo[2,3-d]pyrimidin-4-yl)-1H-pyrazol-1-yl]propanenitrile bis(trifluoroacetate)] | < 50 | 8.1 | – | –
14 | N#CCC(n1cc(-c2ncnc3[nH]ccc23)cn1)C1(F)CCN(c2nc3cccnc3o2)C1 (single isomer, unassigned) [31, Step 4a, enantiomer 1] | 50 to 100 | 5.6 | – | –
15 | CS(=O)(=O)c1nc(N2CC[C@H]([C@H](CC#N)n3cc(-c4ncnc5[nH]ccc45)cn3)C2)c(F)cc1F [Example 130, (3S)-3-{(3S)-1-[3,5-difluoro-6-(methylsulfonyl)pyridin-2-yl]pyrrolidin-3-yl}-3-[4-(7H-pyrrolo[2,3-d]pyrimidin-4-yl)-1H-pyrazol-1-yl]propanenitrile trifluoroacetate] | < 50 | 14.8 | – | –
16 | N#CCC(C1CCN(c2nc3cccc(F)c3o2)C1)n1ccc(-c2ncnc3[nH]ccc23)c1 (single isomer, unassigned) [Example 158-1, 3-[1-(7-fluoro-1,3-benzoxazol-2-yl)pyrrolidin-3-yl]-3-[3-(7H-pyrrolo[2,3-d]pyrimidin-4-yl)-1H-pyrrol-1-yl]propanenitrile] | < 50 | 22.5 | – | –
17 | Cc1cnc(N2CC[C@H]([C@H](CC#N)n3cc(-c4ncnc5[nH]ccc45)cn3)C2)c(C#N)c1 [Example 109, 2-((S)-3-((S)-1-(4-(7H-pyrrolo[2,3-d]pyrimidin-4-yl)-1H-pyrazol-1-yl)-2-cyanoethyl)pyrrolidin-1-yl)-5-methylnicotinonitrile trifluoroacetate salt] | < 50 | 5.0 | – | –

Further lines, results first:

Row | IC50 ([1]; Assay Conditions 1 mM ATP) [nM] | JAK2/JAK1 IC50 ratio (Jak2 (a.a. 828-1132); Assay Conditions 1 mM ATP) | IC50 [1, 2] [nM] | JAK2/JAK1 IC50 ratio (Jak2 (a.a. 828-1132); [3]) | SMILES
18 | < 50 | 11.5 | – | – | N#CC[C@@H]([C@H]1CCN(c2ncncc2C#N)C1)n1cc(-c2ncnc3[nH]ccc23)cn1 [Example 84, 4-((S)-3-((S)-1-(4-(7H-pyrrolo[2,3-d]pyrimidin-4-yl)-1H-pyrazol-1-yl)-2-cyanoethyl)pyrrolidin-1-yl)pyrimidine-5-carbonitrile trifluoroacetate]
19 | < 50 | >5.4 | – | – | N#CCC(C1CCN(c2ncc3cc[nH]c3c2C#N)C1)n1cc(-c2ncnc3[nH]ccc23)cn1 (single isomer, unassigned) [Example 177, 6-(3-{2-cyano-1-[4-(7H-pyrrolo[2,3-d]pyrimidin-4-yl)-1H-pyrazol-1-yl]ethyl}pyrrolidin-1-yl)-1H-pyrrolo[3,2-c]pyridine-7-carbonitrile]
20 | < 50 | 3.2 | – | – | N#CCC(C1CCN(c2ccnc(S)n2)C1)n1cc(-c2ncnc3[nH]ccc23)cn1 (single isomer, unassigned) [Example 150, 3-[1-(2-mercaptopyrimidin-4-yl)pyrrolidin-3-yl]-3-[4-(7H-pyrrolo[2,3-d]pyrimidin-4-yl)-1H-pyrazol-1-yl]propanenitrile]
21 | < 50 | >30 | – | – | N#CC[C@@H]([C@H]1CCN(c2cccc(Cl)c2C#N)C1)n1cc(-c2ncnc3[nH]ccc23)cn1 [Example 48, 2-chloro-6-((3S)-3-{(1S)-2-cyano-1-[4-(7H-pyrrolo[2,3-d]pyrimidin-4-yl)-1H-pyrazol-1-yl]ethyl}pyrrolidin-1-yl)benzonitrile trifluoroacetate]
22 | – | – | < 50 | 3 | N#CCC(C1CCN(c2ncc3cccc(Cl)c3n2)C1)n1cc(-c2ncnc3[nH]ccc23)cn1 (stereo not shown) [Example 44, 3-[1-(8-chloroquinazolin-2-yl)pyrrolidin-3-yl]-3-[4-(7H-pyrrolo[2,3-d]pyrimidin-4-yl)-1H-pyrazol-1-yl]propanenitrile trifluoroacetate salt]
23 | < 50 | 2.3 | – | – | CSc1nccc(N2CCC(C(CC#N)n3cc(-c4ncnc5[nH]ccc45)cn3)C2)n1 (single isomer, unassigned) [Example 23, 3-{1-[2-(methylthio)pyrimidin-4-yl]pyrrolidin-3-yl}-3-[4-(7H-pyrrolo[2,3-d]pyrimidin-4-yl)-1H-pyrazol-1-yl]propanenitrile]
24 | – | – | < 50 | 2.5 | N#CCC(C1CCN(c2nc3ccccc3nc2O)C1)n1cc(-c2ncnc3[nH]ccc23)cn1 (stereo not shown) [Example 43, 3-[1-(3-hydroxyquinoxalin-2-yl)pyrrolidin-3-yl]-3-[4-(7H-pyrrolo[2,3-d]pyrimidin-4-yl)-1H-pyrazol-1-yl]propanenitrile trifluoroacetate salt]
25 | < 50 | 4.6 | – | – | N#CC[C@@H]([C@H]1CCN(c2cccc(F)c2C#N)C1)n1cc(-c2ncnc3[nH]ccc23)cn1 [Example 54, 2-((3S)-3-{(1S)-2-cyano-1-[4-(7H-pyrrolo[2,3-d]pyrimidin-4-yl)-1H pyrazol-1-yl]ethyl}pyrrolidin-1-yl) 6-fluorobenzonitrile trifluoroacetate salt]
26 | – | – | < 50 | 3.7 | N#CCC(C1CCN(c2cccc(Cl)n2)C1)n1cc(-c2ncnc3[nH]ccc23)cn1 (single isomer, unassigned) [2, Step 2b]
